Article PMC9004346, “Development of small cyclic peptides targeting the CK2α/β interface” (Chemical Communications (Cambridge, England), 2022)
*1 amine or outer side, *2 acyl side, *3 side chain or, on linkers, in order; H or OH if unused. Where a SMILES comes first, the peptide text is derived from it. Bridges are numbered along the chain shown (N, C = ends). [ ]: non-standard residue; d: D form. Trp(2-yl) = O=C([C@H](Cc1c([*:3])[nH]c2ccccc12)N[*:1])[*:2]; hCys = N[C@@H](CCS)C(=O)O

What was measured:
CK2α = target: T1, CK2α (Homo sapiens, UniProt P68400); test: Fluorescence polarisation (FP) assay: displacement of a CK2β-like fluorescent probe from CK2α; format: binding; details: CK2α_WT (residues 2-329), fluorescein-labelled CK2β-based peptide probe, ±SEM
T1 construct: 571 nM CK2α_WT (residues 2-329); made in house
T1 sequence (P68400 2-329): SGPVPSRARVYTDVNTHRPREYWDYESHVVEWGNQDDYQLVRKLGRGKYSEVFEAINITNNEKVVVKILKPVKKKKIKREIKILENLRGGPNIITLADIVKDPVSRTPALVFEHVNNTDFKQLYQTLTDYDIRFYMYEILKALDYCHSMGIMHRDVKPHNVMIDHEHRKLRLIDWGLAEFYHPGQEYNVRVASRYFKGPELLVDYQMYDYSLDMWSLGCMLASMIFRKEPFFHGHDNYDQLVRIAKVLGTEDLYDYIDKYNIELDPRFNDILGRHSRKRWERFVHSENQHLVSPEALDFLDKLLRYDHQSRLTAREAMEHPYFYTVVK
Excerpt: To assess the ability of the synthesised linear peptides to displace a CK2β-like fluorescent probe from CK2α, a fluorescence polarisation (FP) assay was used (Table 1, ESI 1.3.2 and Fig. S2, ESI ^†). […]
1.5 Biophysical experiments
1.5.1 Protein expression and purification
Three constructs of CK2α were used in this study. For FP assays, CK2α_WT was used (residues 2-329). […]
These constructs were cloned, expressed, and purified as previously described.19 1.5.2 Fluorescence polarisation
IC50’s were determined using a PHERAstar FS plate reader (BMG labtech). The fluorescein probe was measured using 485 nm excitation and 530 nm emission. The fluorescein probe was covalently linked to the N-terminus of the linear CK2β-based peptide RLYGFKIHPMAYQLQ. IC50’s were measured using 500, 167, 16.7, 8.33 and 0 μM of the test peptide at a constant concentration of DMSO. P7C8, P8C9, P+L and P+ were tested at concentrations of 50.0, 16.7, 1.67, 0.833 and 0 μM due to their higher potencies. The experiments were performed in a Corning 384-well plate with final concentrations of 571 nM CK2α_WT (residues 2-329), 7.4 μM fluorescent peptide (fluorescein probe was covalently linked to the N-terminus of the linear CK2β-based peptide RLYGFKIHPMAYQLQ), 200 mM NaCl, 40mM TRIS, 20 mM MgCl2 and pH 7.5. The plates were read after a 45 min incubation period. […]

Serum stability test = format: in vitro ADME; details: 20% human serum in PBS, 37 °C, monitored over 24 h
Procedure: 1.6.3 Serum stability test
500 μL of PBS buffer supplemented with 20% (v/v) of human serum was allocated into an Eppendorf tube and temperature kept at 37 °C for 15 minutes before commencing the experiment. 5 µL of the peptide from 10 mM stock solution in DMSO was added. Caffeine was added as an internal standard (10 μL of a 15 mg/mL solution in MQ water). At specific intervals, 50 µL of the reaction mixture was taken and quenched with 100 µL of a 1:1 mixture of 96% Ethanol:DMSO. The suspension was spun at 13400 g for 10 minutes. 100 μL of the supernatant was analysed using C-18 HPLC with an eluting gradient 5-95% MeCN (0.05% TFA) in water (0.05% TFA) over 15 minutes (90 μL injection volume).
Percentage of intact starting peptide was monitored over 24 h (calculated as the ratio of the area of […]
the peak corresponding to the intact peptide to the area of the peak of caffeine). The experiment was […]
1 M. M. Wiedmann, Y. S. Tan, Y. Wu, S. Aibara, W. Xu, H. F. Sore, C. S. Verma, L. Itzhaki, M.
Stewart, J. D. Brenton and D. R. Spring, Angew. Chemie Int. Ed., 2017, 56, 524–529.
3 G. T. Potter, G. C. Jayson, G. J. Miller and J. M. Gardiner, J. Org. Chem., 2016, 81, 3443–3446.
4 J. Iegre, P. Brear, D. J. Baker, Y. S. Tan, E. L. Atkinson, H. F. Sore, D. H. O’ Donovan, C. S. Verma,
7 C. Puig Duran, F. Albericio Palomera, M. Gongora Benitez, M. Paradis Bas, L. Miret Casals, I. […]

In the case of `CC(=O)N[C@H]1CCSc2[nH]c3ccccc3c2C[C@@H](C(N)=O)NC(=O)[C@H](CCCCN)NC(=O)[C@H](Cc2ccccc2)NC(=O)CNC(=O)[C@H](Cc2ccc(O)cc2)NC(=O)[C@H](CC(C)C)NC(=O)[C@H](CCCNC(=N)N)NC1=O` [Peptide P8C9, (hC)C9RLYGFKWC9] (Ac-[hCys]RLYGFK[Trp(2-yl)]-NH2; thioether 1-8), the IC50 (CK2α) is reported as 1.7 ± 0.3 µM and the “Serum stability (in words)” value (Serum stability test) is reported as “fully stable in serum over 24 h”.
